What was measured:
db/db mice = test: acute oral glucose tolerance in db/db mice; format: in vivo; conditions: 100 mg/kg
Description: Oral glucose tolerance test (OGTT) method: 8-week old male C57BL/KsJ mice (Shanghai Slac Laboratory Animal Company), 8 for each group, weight of 20±2 g, were fed according to SPF grade operation procedure and fasted for 16 hours prior to experiment. Blood was collected from tail vein of each group of mice prior to experiment. Blood glucose concentrations were measured using Roche ACCU-CHEK glucometer and recorded as time 0. Different concentrations of the compound were intragastric administrated to each administration group of mice, respectively. Equal volume of distilled water was given to control group of mice. The dosage volume was 10 ml/kg. Half an hour after administration, 5 g/kg glucose was intragastric administrated to each group of mice. Blood glucose concentrations of each group of mice were measured and recorded at 20 mins, 40 mins, and 80 mins after the intragastric administration. OGTT curves were recorded. Areas under the curves (AUC) were calibrated with the data in blood glucose of mice to which glucose was not given (calibration group). ONE-WAY-ANOVA was used to compare significant difference between each group (Note: all the experimental methods for acute oral glucose tolerance test in the following activity examples are the same to the experimental method in Example 5, unless otherwise indicated). […]

porcine pancrelipase = target: T1, porcine pancrelipase (Sus scrofa, UniProt P00591); test: inhibitory activity against pancrelipase (p-Nitrophenyl acetate substrate); format: biochemical; conditions: read-out: Inhibition rate % (50 μM) against pancrelipase
T1 construct: purchased Sigma
T1 sequence (P00591 1-450): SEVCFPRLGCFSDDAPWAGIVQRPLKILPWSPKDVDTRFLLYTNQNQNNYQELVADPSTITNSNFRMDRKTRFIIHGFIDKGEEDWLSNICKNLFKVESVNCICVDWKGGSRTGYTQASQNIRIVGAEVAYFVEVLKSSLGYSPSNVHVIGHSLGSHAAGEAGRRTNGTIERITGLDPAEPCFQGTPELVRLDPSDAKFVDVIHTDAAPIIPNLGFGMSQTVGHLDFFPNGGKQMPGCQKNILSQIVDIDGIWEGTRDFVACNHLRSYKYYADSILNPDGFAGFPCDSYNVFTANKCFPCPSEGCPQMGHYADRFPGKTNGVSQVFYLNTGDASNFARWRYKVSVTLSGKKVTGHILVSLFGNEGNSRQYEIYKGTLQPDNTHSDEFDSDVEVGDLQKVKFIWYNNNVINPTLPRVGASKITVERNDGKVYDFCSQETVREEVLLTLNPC
From the text: OD compound, OD blank, and OD negative control represented the fluorescence values from a compound well, a blank well, and a negative control well free of DGAT1 enzyme, and the concentrations of the compounds when the enzyme activity inhibition rate (%) reached 50% were set as IC50 value; (3) inhibitory activity of the individual compounds separated from the extract of Glechoma longituba (Nakai) Kupr., LQC-H-1, against pancrelipase: substrate p-Nitrophenyl acetate (Sigma, USA) was formulated to 1.35 mM with phosphate buffer (25 mM, pH 6.8); porcine pancrelipase (Sigma) was formulated to 10 mg/ml with phosphate buffer; brominated eneyne compounds were formulated to solutions of different concentrations with phosphate buffer. Then, 50 μl of 1.35 mM p-Nitrophenyl acetate (Sigma, USA) solution and 10 μl of test compounds of different concentrations were sequentially added into a 96-well plate and pre-incubated at 37° C. for 5 mins. Finally, 50 μl of 10 mg/ml pancrelipase (EC 3.1.1.3, Sigma, USA) was added and mixed. The reaction proceeded at 37° C. for further 20 mins Absorbance of each well was measured at 492 nm. The inhibition rates (%) of the test samples against pancrelipase were calculated based on the absorbance at 492 nm. The concentrations of the compounds when then enzyme activity inhibition rate (%) reached 50% was set as IC50 value. The inhibition rate (%) could be calculated according to the following formula: Inhibition rate (%)=[(A−B)−(C−D)]/(A−B)×100
In the above formula, A, B, C, and D represented the absorbance of a blank well after the reaction, the absorbance of a blank well prior to the reaction, the absorbance of a sample well after the reaction, and the absorbance of a sample well prior to the reaction.

glucose oxidase (GOX) = target: T2, glucose oxidase (GOX) (Homo sapiens, UniProt Q9UJM8); test: inhibitory activity against glucose oxidase (GOX), enzyme coupling method with glycolic acid substrate; format: biochemical; parameters: Vmax: unit not given here; conditions: for inhibition at 0.1 µM / inhibition at 0.3 µM / inhibition at 1 µM / inhibition at 3 µM / inhibition at 10 µM / inhibition at 30 µM / inhibition at 100 µM: read-out: Inhibition rate; for IC50: fitted by Graphpad Prism 5.0, tested 100 μM-0.1 μM
T2 sequence (Q9UJM8 1-370): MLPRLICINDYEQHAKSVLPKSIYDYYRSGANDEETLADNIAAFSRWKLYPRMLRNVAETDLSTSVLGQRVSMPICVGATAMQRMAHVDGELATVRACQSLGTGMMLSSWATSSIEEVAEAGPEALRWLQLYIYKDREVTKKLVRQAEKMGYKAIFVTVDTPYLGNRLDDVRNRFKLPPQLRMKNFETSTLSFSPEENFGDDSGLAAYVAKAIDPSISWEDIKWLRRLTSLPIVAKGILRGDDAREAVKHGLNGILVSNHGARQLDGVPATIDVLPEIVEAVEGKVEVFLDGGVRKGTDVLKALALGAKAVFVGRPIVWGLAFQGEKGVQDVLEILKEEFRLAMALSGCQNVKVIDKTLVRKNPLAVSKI
Description: Mechanism of experiment: enzyme coupling method utilizes peroxidase (POD) and substrates thereof to react with generated H2O2 to produce colored products so as to determine the catalytic reaction rate of glucose oxidase. POD catalyzes H2O2 to react with phenol and 4-amino antipyrine to produce brown-red quinone substances.
Experimental method: reagents were added according to the table below; the reaction was immediately initiated upon the final addition of substrate glycolic acid; the kinetic course of the reaction was detected by microplate reader; the enzyme activity was represented by Vmax, maximum reaction velocity.
The measurement results were fitted by Graphpad Prism 5.0 to calculate IC50 values.

inhibition at 50 µM (porcine pancrelipase)	Vmax (glucose oxidase (GOX); 0.1 μM)	inhibition at 0.1 µM (glucose oxidase (GOX); 0.1 μM)	Vmax (glucose oxidase (GOX); 0.3 μM)	inhibition at 0.3 µM (glucose oxidase (GOX); 0.3 μM)	Vmax (glucose oxidase (GOX); 1 μM)	inhibition at 1 µM (glucose oxidase (GOX); 1 μM)	Vmax (glucose oxidase (GOX); 3 μM)	inhibition at 3 µM (glucose oxidase (GOX); 3 μM)	Vmax (glucose oxidase (GOX); 10 μM)	inhibition at 10 µM (glucose oxidase (GOX); 10 μM)	Vmax (glucose oxidase (GOX); 30 μM)	inhibition at 30 µM (glucose oxidase (GOX); 30 μM)	Vmax (glucose oxidase (GOX); 100 μM)	inhibition at 100 µM (glucose oxidase (GOX); 100 μM)	IC50 (glucose oxidase (GOX))	SMILES	acute oral glucose tolerance in db/db mice (db/db mice)
41.9%	35.13 ± 0.22	1.54 ± 0.62%	35.47 ± 0.98	0.6 ± 2.74%	35.36 ± 0.65	0.9 ± 1.82%	35.39 ± 0.63	0.83 ± 1.77%	35.08 ± 0.21	1.69 ± 0.58%	34.04 ± 0.65	4.6 ± 1.82%	29.34 ± 0.10	17.8 ± 0.29%	500 µM	O=C(O)C1O[C@@H](OC2C(O)[C@H](O)C(C(=O)O)O[C@H]2Oc2cc(O)c3c(=O)cc(-c4ccc(O)c(O)c4)oc3c2)C(O)C(O)[C@@H]1O (stereo partly drawn) [Compound I, luteolin-7-O-[β-glucuronosyl(1→2)β-glucuronic acid]]	significantly enhances acute oral glucose tolerance
41.6%	36.05 ± 0.85	-1.04 ± 2.39%	36.35 ± 0.84	-1.88 ± 2.35%	35.42 ± 0.43	0.74 ± 1.19%	35.85 ± 1.03	-0.48 ± 2.9%	35.63 ± 1.00	0.15 ± 2.81%	33.88 ± 0.98	5.05 ± 2.76%	29.13 ± 0.80	18.4 ± 2.23%	400 µM	O=C(O)C1O[C@@H](OC2C(O)[C@H](O)C(C(=O)O)O[C@H]2Oc2cc(O)c3c(=O)cc(-c4ccc(O)cc4)oc3c2)C(O)C(O)[C@@H]1O (stereo partly drawn) [Compound II, apigenin-7-O-[β-glucuronosyl(1→2)β-glucuronic acid]]	–

Reference: US10966996B2, “Glechoma longitube extract, preparation method for same, and use thereof in sugar reduction, weight loss, and lipid reduction” (SHANGHAI INSTITUTE OF MATERIA MEDICA CHINESE ACADEMY OF …, priority 2014, dated 2021)
